The results in this text go back to patent publication US20260207637A1, “MODULATOR FOR PROMOTING BINDING OF BUTYROPHILIN 3A1/2A1” (priority 2023, published 2026).

For orientation: EC50 means the midpoint of the concentration-response curve.

In one data set the test system is Huh7/FG2 cells. In words: EC50 assay of small molecule activated γδ T cells to kill Huh7/FG2 tumor cells. The class given is cell-based. To be noted: γδT cells + Huh7/FG2, E:T=5:1, co-culture 20 hours, 0.05-100 nM, read-out: Huh7 killing (EC50). How it is done: (§1) γδT cells and Huh7/FG2 tumor cell lines were expanded and cultured in vitro. The Huh7/FG2 cells were digested, and the cells were counted and resuspended in DMEM complete medium, the density of the cell suspension was adjusted and added into a 96-well plate at 5×10^3 cells/100 μL/well for overnight incubation. On the next day, the test compound and the control compound were diluted at a 3-fold ratio with DMSO, and 4 μL of the diluted compound was added to 96 μL of culture medium for 25-fold dilution. 5 μL of 25-fold diluted compound was transferred to the corresponding well which had been plated with tumor cells, and the actual detection concentration was in the range of 0.05-100 nM. γδT cells were resuspended in γδT complete medium, and the density of the cell suspension was adjusted according to the effector-target ratio of E:T=5:1, and then the cell was added to the corresponding well at 2.5×10^4 cells/100 μL/well. After co-culture at 37° C., 5% CO2 for 20 hours, the cells were centrifuged. […] After standing for 18 minutes in the dark, the signal of chemiluminescence was detected. The EC50 value was calculated by four-parameter fitting, with the corresponding signal value of the well with only tumor cells as the minimum killing value, and the corresponding value of the well without tumor cells as the maximum killing value.

Data set [1] in a line: Stability experiment of compounds in human liver microsomes. Format: in vitro ADME. To be noted: NADPH, 37° C. In a few lines: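 Compounds were incubated with human liver microsomes at 37 °C after reaction start with NADPH (2 mM solution in MgCl2), sampled at 0, 5, 15, 30 and 60 min into precipitant with internal standard. Negative controls lacked NADPH. Remaining compound was quantified by LC-MS/MS to derive half-life.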
(In general: Liver microsomes are vesicles of endoplasmic reticulum, rich in cytochrome P450 enzymes.)

The subject of another data set is MIApaca/FG2 cells. In words: EC50 assay of small molecule activated γδ T cells to kill MIApaca/FG2 tumor cells (3-fold dilution protocol). Format: cell-based. To be noted: 0.05-100 nM, read-out: MIApaca killing (EC50). As for the experimental part: γδT cells and MIApaca/FG2 tumor cell lines were expanded and cultured in vitro. MIApaca/FG2 cells were digested, and the cells were counted and resuspended in DMEM complete medium, the density of the cell suspension was adjusted and added into a 96-well plate at 5×10^3 cells/100 […]/well for overnight incubation. On the next day, the test compound and the control compound were diluted at a 3-fold ratio with DMSO, and 4 μL of the diluted compound was added to 96 μL of culture medium for 25-fold dilution. 5 μL of 25-fold diluted compound was transferred to the corresponding well which had been plated with tumor cells, and the actual detection concentration was in the range of 0.05-100 nM. γδT cells were resuspended in γδT complete medium, and the density of the cell suspension was adjusted according to the effector-target ratio of E:T=2:1, and then the cell was added to the corresponding well at 1×10^4 cells/100 μL/well. After co-culture at 37° C., 5% CO2 for 20 hours, the cells were centrifuged. The supernatant was removed, and 50 μL of cell lysate containing fluorescein substrate was added to each well. After standing for 18 minutes in the dark, the signal of chemiluminescence was detected. The EC50 value was calculated by four-parameter fitting, with the corresponding signal value of the well with only tumor cells as the minimum killing value, and the corresponding value of the well without tumor cells as the maximum killing value. The killing data of MIApaca/FG2 cells is as follows: […]

The next data set relates to SKOV3/ELP cells. In words: EC50 assay of small molecule activated γδ T cells to kill SKOV3/ELP tumor cells. Format: cell-based. The conditions noted are these: γδT cells + SKOV3/ELP, E:T=2:1, co-culture 20 hours, 0.05-100 nM, read-out: SKOV3 killing (EC50). As for the experimental part:
as §1, with “cells and SKOV3/ELP tumor cell” for “cells and Huh7/FG2 tumor cell”, “vitro. The SKOV3/ELP cells were” for “vitro. The Huh7/FG2 cells were”, “resuspended in MC5A complete medium,” for “resuspended in DMEM complete medium,”, “5×10^3 cells/100 […]/well for overnight” for “5×10^3 cells/100 μL/well for overnight”, “ratio of E:T=2:1, and then” for “ratio of E:T=5:1, and then”, “well at 1×10^4 cells/100 μL/well.” for “well at 2.5×10^4 cells/100 μL/well.”

Read-outs that look alike come from different tables or passages of the source.

As to `C/C(=C\CC[P@@](=O)(N[C@@H](C)C(=O)O[C@@H]1CCOC1)Oc1ccccc1)CO` [Compound 19, (R)-tetrahydrofuran-3-yl ((S)-((R)-5-hydroxy-4-methylpent-3-en-1-yl)(phenoxy)phosphoryl)-L-alaninate], the EC50 with Huh7/FG2 cells was found to be 0.42 nM; with MIApaca/FG2 cells (γδT cells + MIApaca/FG2, E:T=2:1, co-culture 20 hours), 0.28 nM; with SKOV3/ELP cells, 0.47 nM. The “T1/2 in human liver microsomes” value in data set [1] stood at 47.8 min.
Consider `C/C(=C\CCP(=O)(N[C@@H](C)C(=O)OC(C)C)Oc1ccccc1)CO` (stereo partly drawn) [Control compound 1, Isopropyl (((E)-5-hydroxy-4-methylpent-3-en-1-yl)(phenoxy)phosphoryl)-L-alaninate, reference compound], for which the EC50 with Huh7/FG2 cells (Homo sapiens, Huh-7) was 1.68 nM; in the data set on MIApaca/FG2 cells (Homo sapiens, MIA PaCa-2, γδT cells + MIApaca/FG2, E:T=2:1, co-culture 20 hours), 0.53 nM; in the data set on SKOV3/ELP cells (Homo sapiens, SK-OV-3) it was 1.14 nM. Further, the half-life in data set [1] (read-out: T1/2 in human liver microsomes) is 8.7 min.
